Where two headings read alike, the source gives them in different places.
How the values were obtained:
VZV = test: Viral qPCR assay, VZV; type: cell-based, varicella zoster virus; conditions: MeWo or MRC5 cells, 0.04-0.1 pfu/cell, growth medium, viral genome copies by qPCR
Method in brief: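 VZV strain Street at 0.04-0.1 pfu/cell infected MeWo or MRC5 cells added to 10-point, 3-fold compound dilutions; ~72 h at 37° C. Viral genome copies by TaqMan qPCR against plasmid standard curve, sometimes normalised to PPIA, scaled between uninfected and DMSO-infected controls; EC50 from 4-parameter fit.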

HCMV Strain AD169 = test: Viral qPCR assay, HCMV; type: cell-based, Human cytomegalovirus; conditions: MRC-5 cells, 0.05-0.1 pfu/cell, growth media or 50% fetal bovine serum, viral genome copies by qPCR, read-out: CMV Cell (EC50)
Method in brief: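 HCMV AD169 at 0.05-0.1 pfu/cell infected MRC-5 cells, added to 10-point 3-fold compound dilutions, in growth medium or medium with 50% FBS; ~72 h at 37°C. Viral genome copies by TaqMan qPCR against plasmid standard curve, normalized to DMSO and uninfected controls; EC50 from 4-parameter fit.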

HSV-1 Strain F = test: Viral qPCR assay, HSV-1; type: cell-based, Herpes Simplex Virus type 1; conditions: Vero or MRC5 cells, 0.0005-0.004 pfu/cell, growth medium, viral genome copies by qPCR, read-out: HSV1 Cell (EC50)
Method in brief: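 HSV-1 strain F at 0.0005–0.004 pfu/cell infected Vero or MRC5 cells, which were added to a 10-point 3-fold compound dilution and cultured ~72 h at 37 °C. Viral genomes in the lysates were quantified by TaqMan qPCR against a plasmid standard curve, in some runs normalized to cellular PPIA. EC50 came from a 4-parameter fit of % effect.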

[1] = molecular target: T1, varicella zoster virus DNA polymerase (Varicella-zoster virus, UniProt P09252); test: VZV polymerase assay (AlphaLISA); type: biochemical; conditions: VZV polymerase 0.4 nM; 30 min pre-incubation; 60 min at 37° C.
T1 construct: made in house; host or cells: SF21 insect cells (baculovirus vector)
T1 sequence (P09252 whole entry): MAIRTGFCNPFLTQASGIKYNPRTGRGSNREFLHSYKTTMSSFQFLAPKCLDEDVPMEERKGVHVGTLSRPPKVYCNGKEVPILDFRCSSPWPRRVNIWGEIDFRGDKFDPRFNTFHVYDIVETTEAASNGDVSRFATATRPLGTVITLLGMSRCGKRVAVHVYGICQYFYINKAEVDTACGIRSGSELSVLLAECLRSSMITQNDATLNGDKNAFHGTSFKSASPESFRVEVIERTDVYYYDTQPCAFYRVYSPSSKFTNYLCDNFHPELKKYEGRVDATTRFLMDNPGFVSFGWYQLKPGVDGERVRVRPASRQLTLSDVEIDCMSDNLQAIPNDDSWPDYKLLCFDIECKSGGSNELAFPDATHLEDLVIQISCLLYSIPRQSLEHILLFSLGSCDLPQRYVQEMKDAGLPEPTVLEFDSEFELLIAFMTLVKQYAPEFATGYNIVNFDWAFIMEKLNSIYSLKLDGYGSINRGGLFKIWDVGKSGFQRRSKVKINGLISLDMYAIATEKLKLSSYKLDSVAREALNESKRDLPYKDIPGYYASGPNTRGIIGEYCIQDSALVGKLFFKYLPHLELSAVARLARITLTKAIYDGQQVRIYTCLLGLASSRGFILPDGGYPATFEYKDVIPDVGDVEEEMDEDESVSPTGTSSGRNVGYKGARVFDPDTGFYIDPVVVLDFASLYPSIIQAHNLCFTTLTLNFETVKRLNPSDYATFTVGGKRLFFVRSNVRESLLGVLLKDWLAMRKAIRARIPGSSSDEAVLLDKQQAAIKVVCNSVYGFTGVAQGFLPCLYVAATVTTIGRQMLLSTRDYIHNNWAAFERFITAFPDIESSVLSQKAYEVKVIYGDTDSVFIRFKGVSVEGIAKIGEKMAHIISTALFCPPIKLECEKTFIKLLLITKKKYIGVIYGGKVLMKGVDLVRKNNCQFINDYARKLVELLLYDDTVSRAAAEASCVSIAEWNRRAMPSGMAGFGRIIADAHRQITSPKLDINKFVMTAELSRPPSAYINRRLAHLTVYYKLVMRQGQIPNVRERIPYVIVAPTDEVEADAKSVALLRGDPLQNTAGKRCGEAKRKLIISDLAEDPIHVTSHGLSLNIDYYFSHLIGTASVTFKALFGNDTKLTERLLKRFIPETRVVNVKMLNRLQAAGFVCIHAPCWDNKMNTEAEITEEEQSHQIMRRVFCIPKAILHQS
Method: Human cytomegalovirus and varicella zoster virus DNA polymerases were expressed via baculovirus vector in SF21 cells and purified. Heterodimeric nucleic acid substrate used in the herpesvirus polymerase reactions was generated by annealing a 59-mer template to a 17-mer digoxigenin-labeled primer. Polymerase (HCMV final concentration of 0.2 nM; VZV final concentration of 0.4 nM) was combined with an inhibitor compound or DMSO in assay buffer (10 mM HEPES, pH 7.5, 25 mM KCl, 25 mM NaCl, 5 mM MgCl2, 5% glycerol, 0.67 mg/ml bovine serum albumin, and 1 mM tris(2-carboxyethyl)phosphine), and this mixture was pre-incubated for 30 minutes at room temperature in 384-well microtiter plates. The polymerization reaction was initiated by the addition of template/primer substrate (final concentration: 1.6 nM), and dNTPs (final concentration: 24 nM dCTP, 24 nMdGTP, 16 nM dATP, 16 nM dTTP, and 0.8 nM biotin-dUTP). After 60 min incubation at 37° C., reactions were terminated with quench buffer (25 mM HEPES pH 7.5, 100 mM NaCl, 0.25% Tween-20, 12 mM EDTA, and 1 mg/ml bovine serum albumin). Incorporation of biotinylated UTP was detected with 2.5-5 ug/ml anti-DIG AlphaLISA acceptor beads and 5-10 ug/ml streptavidin AlphaLISA donor beads (PerkinElmer). Compound effects were normalized to the window defined by the controls (DMSO only and pre-quenched wells) and were fit using a 4-parameter algorithm to report an IC50.

[2] = molecular target: T2, Human cytomegalovirus DNA polymerase (Human cytomegalovirus, UniProt P08546); test: CMV polymerase assay (AlphaLISA); type: biochemical; conditions: HCMV polymerase 0.2 nM; 30 min pre-incubation; 60 min at 37° C.; read-out: CMV (IC50)
T2 construct: made in house; host or cells: SF21 insect cells (baculovirus vector)
T2 sequence (P08546 whole entry): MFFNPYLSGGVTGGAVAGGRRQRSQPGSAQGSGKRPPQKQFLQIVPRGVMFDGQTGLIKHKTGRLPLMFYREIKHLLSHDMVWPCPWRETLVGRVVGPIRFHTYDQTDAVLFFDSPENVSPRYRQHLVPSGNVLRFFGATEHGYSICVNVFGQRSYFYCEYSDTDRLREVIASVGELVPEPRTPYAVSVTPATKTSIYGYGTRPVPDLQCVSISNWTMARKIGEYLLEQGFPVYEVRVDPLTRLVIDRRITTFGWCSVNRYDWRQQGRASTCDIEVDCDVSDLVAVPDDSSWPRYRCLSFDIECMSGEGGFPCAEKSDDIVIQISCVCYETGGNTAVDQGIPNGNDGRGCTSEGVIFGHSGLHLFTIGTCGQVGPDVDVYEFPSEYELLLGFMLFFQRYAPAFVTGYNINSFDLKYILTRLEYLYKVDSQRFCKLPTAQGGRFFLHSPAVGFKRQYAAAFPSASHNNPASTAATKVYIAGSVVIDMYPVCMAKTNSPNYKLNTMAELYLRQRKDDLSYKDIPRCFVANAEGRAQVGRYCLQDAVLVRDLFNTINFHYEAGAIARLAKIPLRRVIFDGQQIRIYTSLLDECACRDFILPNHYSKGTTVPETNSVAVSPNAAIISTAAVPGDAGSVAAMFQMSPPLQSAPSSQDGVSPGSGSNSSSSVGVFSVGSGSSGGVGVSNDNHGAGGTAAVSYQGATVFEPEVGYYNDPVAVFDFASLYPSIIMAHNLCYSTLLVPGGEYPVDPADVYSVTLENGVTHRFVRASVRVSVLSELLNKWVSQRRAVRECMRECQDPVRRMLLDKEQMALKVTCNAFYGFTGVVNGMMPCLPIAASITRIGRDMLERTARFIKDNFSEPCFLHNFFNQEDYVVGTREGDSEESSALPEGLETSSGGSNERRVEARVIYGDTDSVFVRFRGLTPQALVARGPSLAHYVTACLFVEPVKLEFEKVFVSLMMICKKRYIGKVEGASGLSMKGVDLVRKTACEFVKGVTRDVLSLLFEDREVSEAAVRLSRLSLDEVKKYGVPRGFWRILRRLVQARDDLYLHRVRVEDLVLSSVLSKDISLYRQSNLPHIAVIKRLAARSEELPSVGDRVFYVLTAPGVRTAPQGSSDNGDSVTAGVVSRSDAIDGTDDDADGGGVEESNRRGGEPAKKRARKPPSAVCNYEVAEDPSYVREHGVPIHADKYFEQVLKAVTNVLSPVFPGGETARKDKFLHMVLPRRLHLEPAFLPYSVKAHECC
Method in brief: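 Baculovirus-expressed polymerase (HCMV 0.2 nM, VZV 0.4 nM) preincubated 30 min with compound, then reacted 60 min at 37 °C with 1.6 nM DIG-primer/59-mer template and low-nM dNTPs including 0.8 nM biotin-dUTP. Incorporation detected by AlphaLISA; IC50 from a 4-parameter fit normalized to DMSO and pre-quenched controls.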

[3] = Human betaherpesvirus 5, AD169, MRC5, 72 h

IC50 [1] [nM]	IC50 [2] [nM]	Structure (SMILES)	EC50 (VZV; Human alphaherpesvirus 3, 72 h) [nM]	EC50 (HCMV Strain AD169; [3]) [nM]	EC50 (HSV-1 Strain F; Human alphaherpesvirus 1, 72 h) [nM]	EC50 (VZV; ~72 hrs) [nM]	EC50 (HCMV Strain AD169; ~72 hrs) [nM]	EC50 (HSV-1 Strain F; ~72 hrs) [nM]
0.351	6.32	COc1nc(-c2cnco2)c(O[C@H]2CCN3C(=O)OC[C@@H]3C2)cc1C(=O)NCc1ccc(C#N)cc1 [Compound 60]	90.4	29.8	65	–	–	–
12.9	12	COc1nc(-c2cnn(Cc3ccccn3)c2)c(O[C@H]2CCN3C(=O)OC[C@@H]3C2)cc1C(=O)NCc1ccc(Cl)cc1 [Compound 15]	355	144	233	–	–	–
110	249	COc1ncc(O[C@H]2CCN3C(=O)OC[C@@H]3C2)cc1C(=O)NCc1ccc(Cl)cc1 [Compound 103]	5500	4690	–	–	–	–
0.161	4.11	COc1nc(-c2cnc(C)o2)c(O[C@H]2CCN3C(=O)OC[C@@H]3C2)cc1C(=O)NCc1ccc(Cl)cc1 [Compound 5]	107	71.4	80.1	–	–	–
15	37.9	COc1nc(C)c(O[C@H]2CCN3C(=O)OC[C@@H]3C2)cc1C(=O)NCc1ccc(Cl)cc1 [Compound 8]	841	415	866	–	–	–
10.2	15.9	COc1nc(-c2cccnc2)c(O[C@H]2CCN3C(=O)OC[C@@H]3C2)cc1C(=O)NCc1ccc(Cl)cc1 [Compound 40]	200	206	123	–	–	–
2.96	8.84	CC(C)(O)COc1nc(-c2cnn(C(F)F)c2)c(O[C@H]2CCN3C(=O)OC[C@@H]3C2)cc1C(=O)NCc1ccc(Cl)cc1 [Compound 86]	232	213	130	–	–	–
4.84	3.69	COc1nc(-c2cnn(C3CC3)c2)c(O[C@H]2CCN3C(=O)OC[C@@H]3C2)cc1C(=O)NCc1ccc(Cl)cc1 [Compound 22]	129	170	93	–	–	–
5.38	3.16	COc1nc(-c2cnn(C(F)F)c2)c(O[C@H]2CCN3C(=O)OC[C@@H]3C2)cc1C(=O)NCc1ccc(Cl)c(F)c1 [Compound 55]	178	161	102	–	–	–
12.4	45.5	COc1nc(N2CCC(C(C)(C)N)C2)c(O[C@H]2CCN3C(=O)OC[C@@H]3C2)cc1C(=O)NCc1ccc(Cl)cc1 (single isomer, unassigned) [Compound 72]	–	–	–	665	276	559
1.71	4.87	COc1nc(-c2cc(C)no2)c(O[C@H]2CCN3C(=O)OC[C@@H]3C2)cc1C(=O)NCc1ccc(Cl)cc1 [Compound 9]	98.4	111	85.7	–	–	–
2.91	5.55	COc1nc(-c2cnc(C(C)(C)O)s2)c(O[C@H]2CCN3C(=O)OC[C@@H]3C2)cc1C(=O)NCc1ccc(Cl)cc1 [Compound 19]	204	157	96.9	–	–	–
0.508	11.3	COc1nc(-c2cnc(C3CC3)o2)c(O[C@H]2CCN3C(=O)OC[C@@H]3C2)cc1C(=O)NCc1ccc(Cl)cc1 [Compound 10]	131	134	150	–	–	–
0.0532	8.36	COc1nc(-c2nc(C)no2)c(O[C@H]2CCN3C(=O)OC[C@@H]3C2)cc1C(=O)NCc1ccc(Cl)cc1 [Compound 82]	103	83.5	73.9	–	–	–
21.3	55.9	COc1nc(Br)c(O[C@H]2CCN3C(=O)OC[C@@H]3C2)cc1C(=O)NCc1ccc(Cl)cc1 [Int-3]	651	822	832	–	–	–
6.05	11.7	COc1nc(-c2nnc(C3CC3)s2)c(O[C@H]2CCN3C(=O)OC[C@@H]3C2)cc1C(=O)NCc1ccc(Cl)cc1 [Compound 83]	110	153	83.5	–	–	–
14.5	15	COc1nc(N2CC(C(C)(C)O)C2)c(O[C@H]2CCN3C(=O)OC[C@@H]3C2)cc1C(=O)NCc1ccc(Cl)cc1 [Compound 70]	409	194	278	–	–	–
0.223	1.32	COc1nc(-c2cc(C)ns2)c(O[C@H]2CCN3C(=O)OC[C@@H]3C2)cc1C(=O)NCc1ccc(Cl)cc1 [Compound 7]	129	82.6	72.6	–	–	–
5.28	16.4	COc1nc(N2CC(F)(F)C2)c(O[C@H]2CCN3C(=O)OC[C@@H]3C2)cc1C(=O)NCc1ccc(Cl)cc1 [Compound 65]	758	376	877	–	–	–
4.03	7.58	COc1nc(-c2cnn3c2CCC3)c(O[C@H]2CCN3C(=O)OC[C@@H]3C2)cc1C(=O)NCc1ccc(Cl)cc1 [Compound 24]	390	200	195	–	–	–
0.252	4.3	COc1nc(-c2ncco2)c(O[C@H]2CCN3C(=O)OC[C@@H]3C2)cc1C(=O)NCc1ccc(Cl)cc1 [Compound 62]	157	73	129	–	–	–
0.0674	1.05	COc1nc(-c2cnco2)c(O[C@H]2CCN3C(=O)OC[C@@H]3C2)cc1C(=O)NCc1ccc(Cl)cc1 [Compound 6]	110	77	87.5	–	–	–
1.47	15.6	COCCOc1nc(-c2cnn(C(F)F)c2)c(O[C@H]2CCN3C(=O)OC[C@@H]3C2)cc1C(=O)NCc1ccc(Cl)cc1 [Compound 85]	342	187	143	–	–	–
0.627	3.33	O=C(NCc1ccc(Cl)cc1)c1cc(O[C@H]2CCN3C(=O)OC[C@@H]3C2)c(-c2cnn(C(F)F)c2)nc1OCCO [Compound 84]	140	116	113	–	–	–
0.63	2.07	COc1nc(-c2cncs2)c(O[C@H]2CCN3C(=O)OC[C@@H]3C2)cc1C(=O)NCc1ccc(Cl)cc1 [Compound 16]	–	137	–	–	–	–
5.86	9.81	COc1nc(-c2cncnc2)c(O[C@H]2CCN3C(=O)OC[C@@H]3C2)cc1C(=O)NCc1ccc(Cl)cc1 [Compound 38]	150	111	83.1	–	–	–
–	5.15	CN1C(=O)NC[C@@H]1COc1nc(-c2cnn(C(F)F)c2)c(O[C@H]2CCN3C(=O)OC[C@@H]3C2)cc1C(=O)NCc1ccc(Cl)cc1 [Compound 94]	2180	520	773	–	–	–
–	0.705	COc1nc(-c2cnn(CCO)c2)c(O[C@H]2CCN3C(=O)OC[C@@H]3C2)cc1C(=O)NCc1ccc(Cl)cc1 [Compound 32]	106	103	52	–	–	–
